The numbers were not newly measured in US20240156825A1, “USE OF SELECTIVE VEGFR2 AND FGFR1 INHIBITORS” (Fountain Therapeutics Inc., priority 2022, published 2024), which cites them from elsewhere.

For one data set, the system named is any gene target. The note with it: next lowest IC50 value to any gene target, read-out: Min IC50_μM, cited from earlier work.
Another data set has as its target VEGFR2 (Homo sapiens, UniProt P35968). Particulars: reported IC50 to VEGFR2, read-out: VEGFR2 IC50_μM, cited from earlier work.
[1] abbreviates: Table 3, selective inhibitors of VEGFR2.

Like-named read-outs stand apart in the source and are kept apart here.

VEGFR2, sequence (P35968 20-1356, species assumed): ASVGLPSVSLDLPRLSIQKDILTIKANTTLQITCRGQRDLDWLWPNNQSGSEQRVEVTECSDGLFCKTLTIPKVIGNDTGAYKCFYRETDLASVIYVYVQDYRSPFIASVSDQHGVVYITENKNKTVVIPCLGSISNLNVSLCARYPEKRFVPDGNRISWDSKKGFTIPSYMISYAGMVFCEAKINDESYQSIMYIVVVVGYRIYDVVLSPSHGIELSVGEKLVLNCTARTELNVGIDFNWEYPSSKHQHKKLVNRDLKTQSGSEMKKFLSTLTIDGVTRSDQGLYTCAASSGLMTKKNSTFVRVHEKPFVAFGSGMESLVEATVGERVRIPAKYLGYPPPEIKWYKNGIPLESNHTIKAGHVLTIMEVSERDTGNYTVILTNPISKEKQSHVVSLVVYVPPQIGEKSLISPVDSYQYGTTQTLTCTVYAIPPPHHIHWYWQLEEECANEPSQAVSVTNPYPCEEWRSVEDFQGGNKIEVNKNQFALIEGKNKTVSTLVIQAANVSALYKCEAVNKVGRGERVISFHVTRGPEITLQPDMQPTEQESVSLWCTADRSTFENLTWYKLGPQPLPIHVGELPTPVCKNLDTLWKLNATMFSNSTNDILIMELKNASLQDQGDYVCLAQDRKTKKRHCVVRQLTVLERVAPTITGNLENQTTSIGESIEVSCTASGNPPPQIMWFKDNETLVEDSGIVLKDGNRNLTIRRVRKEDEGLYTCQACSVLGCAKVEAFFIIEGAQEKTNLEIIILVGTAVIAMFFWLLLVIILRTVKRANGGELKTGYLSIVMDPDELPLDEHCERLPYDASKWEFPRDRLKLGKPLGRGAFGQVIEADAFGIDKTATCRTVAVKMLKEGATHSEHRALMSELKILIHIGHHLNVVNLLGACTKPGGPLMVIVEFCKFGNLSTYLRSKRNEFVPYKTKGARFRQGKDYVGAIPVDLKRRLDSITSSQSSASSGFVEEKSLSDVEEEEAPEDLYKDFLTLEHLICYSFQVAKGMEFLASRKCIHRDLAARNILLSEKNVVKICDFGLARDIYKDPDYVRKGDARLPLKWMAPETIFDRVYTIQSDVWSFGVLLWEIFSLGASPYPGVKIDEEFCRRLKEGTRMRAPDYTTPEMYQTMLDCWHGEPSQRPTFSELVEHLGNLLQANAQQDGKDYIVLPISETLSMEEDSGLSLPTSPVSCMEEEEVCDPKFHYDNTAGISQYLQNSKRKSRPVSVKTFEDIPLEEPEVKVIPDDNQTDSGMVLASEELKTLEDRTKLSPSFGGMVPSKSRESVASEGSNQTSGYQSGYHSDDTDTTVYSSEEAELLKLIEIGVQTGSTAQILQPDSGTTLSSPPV

As for `COc1cc2ncnc(Nc3ccccc3Cl)c2cc1OCCCC(=O)NO` [compound 127027019], the IC50 in the data set with any gene target is 1.26 µM; at VEGFR2, 0.857 µM.
Turning to `COc1cc2c(Nc3ccc(Cl)c(Cl)c3)ncnc2cc1OCc1csc(C2CCNCC2)n1` [compound 53630972], the IC50 with any gene target (Table 3) and at VEGFR2 (setting [1]) was 0.05 µM in each case.
Turning to `COc1cc2c(Nc3ccc(Cl)c(Cl)c3Cl)ncnc2cc1OCC1CN(C)CCO1` (stereo not drawn) [compound 57802801], the IC50 in the data set on any gene target and on VEGFR2 was 0.05 µM in each case.
For `CN=C(NC#N)N1CCOC(COc2cc3ncnc(Nc4ccc(Cl)c(C)c4)c3cc2OC)C1` (stereo not drawn) [compound 89125605], the IC50 in the data set on any gene target (Table 3) and on VEGFR2 (setting [1]) was 0.05 µM in each case.
As to `COc1cc2ncnc(Nc3ccc(Cl)cc3)c2cc1OCCCC(=O)NO` [compound 127027096], the IC50 is 0.698 µM with any gene target and 0.182 µM on VEGFR2.
As for `O=C(NCCc1ccc(O)c(Br)c1)/C(Cc1cc(Br)c(O)c(Oc2ccc(CCNC(=O)/C(Cc3cc(Br)c(O)c(-c4cc(C/C(=N\O)C(=O)NCCc5ccc(O)c(Br)c5)cc(Br)c4O)c3)=N/O)cc2Br)c1)=N/O` [compound 71524406], the IC50 in the data set with any gene target (Table 3) and on VEGFR2 (setting [1]) was 0.6 µM each time.
In the case of `COc1cc2c(Nc3cc(Cl)c(Cl)cc3F)ncnc2cc1OC[C@@H]1CN2CCOC[C@H]2CO1` [compound 66838463], the IC50 in the data set with any gene target (Table 3) and on VEGFR2 (setting [1]) was 0.05 µM in each case.
For the molecule `O=C(CCCCCN1CCN(Cc2ccc(-c3cc4c(NCc5ccccc5)ncnc4[nH]3)cc2)CC1)NO` [compound 24900714], the IC50 with any gene target (Table 3) and at VEGFR2 (setting [1]) was 0.1 µM in each case.
Take `COc1cc2c(Nc3ccc(Cl)c(Cl)c3C)ncnc2cc1OCC1CN(C)CCO1` (stereo not drawn) [compound 57802584]: the IC50 in the data set on any gene target (Table 3) and at VEGFR2 (setting [1]) was 0.05 µM in each case.
With `COc1cc2nccc(Oc3ccc4c(C(N)=O)cccc4c3)c2cc1OC` [compound 11474276], the IC50 in the data set with any gene target was 0.088 µM; on VEGFR2 it was 0.000891 µM.
Regarding `O=C(Nc1ccccc1)Nc1ccc2c(c1)NC(=O)/C2=C\c1ccc[nH]1` [compound 46182735], the IC50 with any gene target was 0.0023 µM; at VEGFR2, 0.001 µM.
On to `COc1cc2c(Nc3ccc(Br)c(Cl)c3F)ncnc2cc1OC[C@@H]1CN2CCC[C@H]2C(=O)N1` [compound 57802807], for which the IC50 in the data set with any gene target and on VEGFR2 was 0.05 µM throughout.
Take `COc1cc(C2=C(c3c[nH]c4ccc(I)cc34)C(=O)NC2=O)cc(OC)c1OC` [compound 46231220]: the IC50 in the data set on any gene target is 0.0295 µM; at VEGFR2, 0.0249 µM.
For `COCCNC(=O)c1cccc2cc(Oc3ccnc4cc(OC)c(OC)cc34)ccc12` [compound 11362483], the IC50 with any gene target is 0.073 µM; on VEGFR2, 0.012 µM.
As to `C[C@@H](Nc1ncnc2[nH]c(-c3ccc(CN4CCN(CCCC(=O)NO)CC4)cc3)cc12)c1ccccc1` [compound 24900378], the IC50 was 1 µM in the data set on any gene target and 0.1 µM at VEGFR2.
As to `C[C@@H](Nc1ncnc2[nH]c(-c3ccc(C(=O)NCCNCCCCCC(=O)NO)cc3)cc12)c1ccccc1` [compound 24900641], the IC50 in the data set on any gene target and at VEGFR2 was 0.1 µM in each case.
Take `CC(=O)Nc1ccc2c(c1)C(c1ccccc1Cl)=Nc1cn[nH]c1N2` [compound 136002662]: the IC50 with any gene target is 0.038 µM; on VEGFR2 it was 0.033 µM.
For the molecule `CCN(Cc1cc(Nc2nc(C)cn3c(-c4cn[nH]c4)cnc23)sn1)C(C)(C)CO` [compound 53317913], the IC50 in the data set with any gene target (Table 3) and on VEGFR2 (setting [1]) was 0.001 µM in each case.
With `COc1cc2c(Nc3ccc(Br)c(Cl)c3Cl)ncnc2cc1OCC1CN(C)CCO1` (stereo not drawn) [compound 57802669], the IC50 with any gene target and on VEGFR2 was 0.05 µM each time.
As to `COc1cc2c(Nc3c(F)cc(Cl)cc3F)ncnc2cc1OCC1CCNCC1` [compound 5329050], the values for the IC50 in the data set with any gene target and at VEGFR2 were 0.1 µM and 0.04 µM, respectively.
In the case of `COc1cc2c(Nc3ccc(Cl)c(Cl)c3)ncnc2cc1OCC1CN(S(=O)(=O)CCCCl)CCO1` (stereo not drawn) [compound 57802656], the IC50 with any gene target and on VEGFR2 was 0.05 µM in each case.
